According to patent US9789181B2, “PAN-DR binding polypeptides and uses thereof” (Epimmune Inc., priority 2009, dated 2017):
Where no end group is shown, it is not given here.

Columns and labels:
purified HLA DRB1 *0401 = purified HLA DRB1 *0401 (Homo sapiens, UniProt P01903+P01911, A100K/A169T/F76Y/I96L/K127E/L162R/M171V/N62H/P40V/Q125Y/R42H/S133A/S149N/S66Y/V115G/V209L/W38E); assay: IC50nM to purified HLA | DRB1 *0401
Method: (§1) Table printed on a drawing sheet, FIG. 1
Head of the field: IC50nM to purified HLA | DRB1 *0401
(§2) First copying reader's note: The comma is the decimal sign and the point a thousands separator (e.g. 21.831); some values are printed bold or italic and some SEQ ID NOs underlined, with no legend on the sheet.
Where the first naming reader finds the target: head: IC50nM to purified HLA | DRB1 *0401

purified HLA DRB1 *1501 = purified HLA DRB1 *1501 (Homo sapiens, UniProt P01903+P01911); assay: IC50nM to purified HLA | DRB1 *1501
Method: as §1
(§3) Head of the field: IC50nM to purified HLA | DRB1 *1501
as §2
(§4) Where the first naming reader finds the target: head: IC50nM to purified HLA | DRB1 *1501

purified HLA DRB1 *0802 = purified HLA DRB1 *0802 (Homo sapiens, UniProt P01903+P01911, A100R/A103L/A169T/F76Y/H45Y/I96F/K41T/L162R/M171V/P40S/Q125H/Q178H/Q39Y/Q99D/R218S/R42G/S66Y/V115G/W38E); assay: IC50nM to purified HLA | DRB1 *0802
Method: as §1
(§5) Head of the field: IC50nM to purified HLA | DRB1 *0802
as §2
(§6) Where the first naming reader finds the target: head: IC50nM to purified HLA | DRB1 *0802

purified HLA DRB1 *0404 = purified HLA DRB1 *0404 (Homo sapiens, UniProt P01903+P01911, A100R/A169T/F76Y/I96L/K127E/L162R/M171V/N62H/P40V/Q125Y/R42H/S133A/S149N/S66Y/V209L/W38E); assay: IC50nM to purified HLA | DRB1 *0404
Method: as §1
(§7) Head of the field: IC50nM to purified HLA | DRB1 *0404
as §2
(§8) Where the first naming reader finds the target: head: IC50nM to purified HLA | DRB1 *0404

purified HLA DRB1 *1302 = purified HLA DRB1 *1302 (Homo sapiens, UniProt P01903+P01911, A100E/A169T/K41T/L162R/M171V/P40S/Q125H/Q178H/Q39Y/Q99D/R42S/S66N/T262R/V115G/W38E/Y61H); assay: IC50nM to purified HLA | DRB1 *1302
Method: as §1
Head of the field: IC50nM to purified HLA | DRB1 *1302
as §2
Where the first naming reader finds the target: head: IC50nM to purified HLA | DRB1 *1302

purified HLA DRB4 *0101 = purified HLA DRB4 *0101 (Homo sapiens, UniProt P01903+P13762, G164S); assay: IC50nM to purified HLA | DRB4 *0101
Method: as §1
(§9) Head of the field: IC50nM to purified HLA | DRB4 *0101
as §2
(§10) Where the first naming reader finds the target: head: IC50nM to purified HLA | DRB4 *0101

purified HLA DRB5 *0101 = purified HLA DRB5 *0101 (Homo sapiens, UniProt P01903+Q30154); assay: IC50nM to purified HLA | DRB5 *0101
Method: as §1
(§11) Head of the field: IC50nM to purified HLA | DRB5 *0101
as §2
(§12) Where the first naming reader finds the target: head: IC50nM to purified HLA | DRB5 *0101

purified HLA DRB1 *0301 = purified HLA DRB1 *0301 (Homo sapiens, UniProt P01903+P01911, A100K/A102G/A103R/A169T/F55Y/I96L/K41T/L162R/M171V/P40S/Q125H/Q178H/Q39Y/R42S/S66N/T106N/T262R/W38E/Y61H); assay: IC50nM to purified HLA | DRB1 *0301
Method: as §1
(§13) Head of the field: IC50nM to purified HLA | DRB1 *0301
as §2
(§14) Where the first naming reader finds the target: head: IC50nM to purified HLA | DRB1 *0301

purified HLA DRB1 *0701 = purified HLA DRB1 *0701 (Homo sapiens, UniProt P01903+P01911, A100R/A102G/A103Q/D57E/D86V/E43K/F76Y/K127E/L162R/M171V/P40G/Q125H/Q99D/R33Q/R42Y/R54Q/S133A/S66F/T210M/V115G/Y107V/Y59L/Y89S); assay: IC50nM to purified HLA | DRB1 *0701
Method: as §1
Head of the field: IC50nM to purified HLA | DRB1 *0701
as §2
Where the first naming reader finds the target: head: IC50nM to purified HLA | DRB1 *0701

purified HLA DRB1 *0101 = purified HLA DRB1 *0101 (Homo sapiens, UniProt P01903+P01911, A100R/D57E/F55L/F60I/F76Y/I96L/L162R/M171V/P40L/Q125E/R42F/V115G/Y59C); assay: IC50nM to purified HLA | DRB1 *0101
Method: as §1
(§15) Head of the field: IC50nM to purified HLA | DRB1 *0101
as §2
(§16) Where the first naming reader finds the target: head: IC50nM to purified HLA | DRB1 *0101

HLA DRB1 *0101 = HLA DRB1 *0101 (Homo sapiens, UniProt P01903+P01911, A100R/D57E/F55L/F60I/F76Y/I96L/L162R/M171V/P40L/Q125E/R42F/V115G/Y59C); assay: IC50nM to purified HLA | DRB1 *0101
Method: (§17) Table printed on a drawing sheet, FIG. 1 (contd.)
as §15
(§18) First copying reader's note: Continued from the preceding sheet of FIG. 1; decimal commas are used, the analog names give the substituted residues and positions in PADRE, and some values are printed in italics or bold and some SEQ ID NOs bold and underlined without a legend on this sheet.
as §16

HLA DRB1 *0802 = HLA DRB1 *0802 (Homo sapiens, UniProt P01903+P01911, A100R/A103L/A169T/F76Y/H45Y/I96F/K41T/L162R/M171V/P40S/Q125H/Q178H/Q39Y/Q99D/R218S/R42G/S66Y/V115G/W38E); assay: IC50nM to purified HLA | DRB1 *0802
Method: as §17, §5, §18, §6

HLA DRB1 *0405 = HLA DRB1 *0405 (Homo sapiens, UniProt P01903+P01911, A100R/A169T/D86S/F76Y/I96L/K127E/L162R/M171V/N62H/P40V/Q125Y/R42H/S133A/S149N/S66Y/V115G/V209L/W38E); assay: IC50nM to purified HLA | DRB1 *0405
Method: as §17
(§19) Head of the field: IC50nM to purified HLA | DRB1 *0405
as §18
(§20) Where the first naming reader finds the target: head: IC50nM to purified HLA | DRB1 *0405

HLA DRB1 *0301 = HLA DRB1 *0301 (Homo sapiens, UniProt P01903+P01911, A100K/A102G/A103R/A169T/F55Y/I96L/K41T/L162R/M171V/P40S/Q125H/Q178H/Q39Y/R42S/S66N/T106N/T262R/W38E/Y61H); assay: IC50nM to purified HLA | DRB1 *0301
Method: as §17, §13, §18, §14

HLA DRB1 *1501 = HLA DRB1 *1501 (Homo sapiens, UniProt P01903+P01911); assay: IC50nM to purified HLA | DRB1 *1501
Method: as §17, §3, §18, §4

HLA DRB4 *0101 = HLA DRB4 *0101 (Homo sapiens, UniProt P01903+P13762, G164S); assay: IC50nM to purified HLA | DRB4 *0101
Method: as §17, §9, §18, §10

HLA DRB1 *1101 = HLA DRB1 *1101 (Homo sapiens, UniProt P01903+P01911, A100R/A169T/A87E/I96F/K41T/L162R/M171V/P40S/Q125H/Q178H/Q39Y/Q99D/R42S/S66Y/T262R/V115G/W38E); assay: IC50nM to purified HLA | DRB1 *1101
Method: as §17
Head of the field: IC50nM to purified HLA | DRB1 *1101
as §18
Where the first naming reader finds the target: head: IC50nM to purified HLA | DRB1 *1101

HLA DRB1 *0404 = HLA DRB1 *0404 (Homo sapiens, UniProt P01903+P01911, A100R/A169T/F76Y/I96L/K127E/L162R/M171V/N62H/P40V/Q125Y/R42H/S133A/S149N/S66Y/V209L/W38E); assay: IC50nM to purified HLA | DRB1 *0404
Method: as §17, §7, §18, §8

HLA DRB5 *0101 = HLA DRB5 *0101 (Homo sapiens, UniProt P01903+Q30154); assay: IC50nM to purified HLA | DRB5 *0101
Method: as §17, §11, §18, §12

purified HLA DRB1 *0405 = purified HLA DRB1 *0405 (Homo sapiens, UniProt P01903+P01911, A100R/A169T/D86S/F76Y/I96L/K127E/L162R/M171V/N62H/P40V/Q125Y/R42H/S133A/S149N/S66Y/V115G/V209L/W38E); assay: IC50nM to purified HLA | DRB1 *0405
Method: as §1, §19, §2, §20

Sequence of purified HLA DRB4 *0101 (P01903 26-254 limits assumed): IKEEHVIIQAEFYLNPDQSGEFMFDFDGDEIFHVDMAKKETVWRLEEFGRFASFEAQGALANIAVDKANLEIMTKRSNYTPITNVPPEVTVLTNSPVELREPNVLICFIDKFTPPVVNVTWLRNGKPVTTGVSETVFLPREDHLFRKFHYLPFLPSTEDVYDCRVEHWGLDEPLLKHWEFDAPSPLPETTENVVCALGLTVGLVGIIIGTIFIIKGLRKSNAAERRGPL
Sequence of purified HLA DRB4 *0101 (P13762 whole entry G164S): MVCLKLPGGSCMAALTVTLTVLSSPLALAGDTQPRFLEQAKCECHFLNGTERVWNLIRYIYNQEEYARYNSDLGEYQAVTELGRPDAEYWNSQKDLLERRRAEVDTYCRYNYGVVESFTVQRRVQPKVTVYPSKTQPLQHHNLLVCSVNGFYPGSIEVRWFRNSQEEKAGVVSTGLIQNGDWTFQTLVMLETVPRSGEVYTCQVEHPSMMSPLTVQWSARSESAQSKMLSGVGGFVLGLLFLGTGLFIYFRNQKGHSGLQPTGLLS
Sequence of purified HLA DRB1 *0301 (P01903 26-254 limits assumed, other chains not shown): as the sequence (P01903 26-254 limits assumed) above
Sequence of HLA DRB1 *0301 (P01903 26-254 limits assumed, other chains not shown): as the sequence (P01903 26-254 limits assumed) above
Sequence of purified HLA DRB1 *1302 (P01903 26-254 limits assumed, other chains not shown): as the sequence (P01903 26-254 limits assumed) above
Sequence of HLA DRB1 *1101 (P01903 26-254 limits assumed, other chains not shown): as the sequence (P01903 26-254 limits assumed) above
Sequence of HLA DRB4 *0101 (P01903 26-254 limits assumed): as above
Sequence of HLA DRB4 *0101 (P13762 whole entry G164S): as the sequence (P13762 whole entry G164S) above

Row | IC50 (purified HLA DRB1 *0401) | IC50 (purified HLA DRB1 *1501) | IC50 (purified HLA DRB1 *0802) | IC50 (purified HLA DRB1 *0404) | IC50 (purified HLA DRB1 *1302) | IC50 (purified HLA DRB4 *0101) | IC50 (purified HLA DRB5 *0101) | IC50 (purified HLA DRB1 *0301) | IC50 (purified HLA DRB1 *0701) | IC50 (purified HLA DRB1 *0101) | IC50 (HLA DRB1 *0101) | IC50 (HLA DRB1 *0802) | IC50 (HLA DRB1 *0405) | IC50 (HLA DRB1 *0301) | IC50 (HLA DRB1 *1501) | IC50 (HLA DRB4 *0101) | IC50 (HLA DRB1 *1101) | IC50 (HLA DRB1 *0404) | IC50 (HLA DRB5 *0101) | IC50 (purified HLA DRB1 *0405) | Sequence
1 | 3.4 nM | 4.2 nM | 11 nM | 5.7 nM | 1320 nM | 526 nM | 30 nM | 214 nM | 94 nM | 3.8 nM |  |  |  |  |  |  |  |  |  |  | AAAHFVAAYTLHAAA [SEQ ID NO: 27]
2 |  |  |  |  |  |  |  |  |  |  | 4.4 nM | 8.5 nM | 18 nM | 372 nM | 12 nM |  | 14 nM | 5.9 nM | 8.7 nM |  | AAANFVAAWTLKAAA [SEQ ID NO: 50]

More lines, now with the values behind:

Row | Sequence | IC50 (purified HLA DRB1 *0401) | IC50 (purified HLA DRB1 *1501) | IC50 (purified HLA DRB1 *0802) | IC50 (purified HLA DRB1 *0404) | IC50 (purified HLA DRB1 *1302) | IC50 (purified HLA DRB4 *0101) | IC50 (purified HLA DRB5 *0101) | IC50 (purified HLA DRB1 *0301) | IC50 (purified HLA DRB1 *0701) | IC50 (purified HLA DRB1 *0101) | IC50 (HLA DRB1 *0101) | IC50 (HLA DRB1 *0802) | IC50 (HLA DRB1 *0405) | IC50 (HLA DRB1 *0301) | IC50 (HLA DRB1 *1501) | IC50 (HLA DRB4 *0101) | IC50 (HLA DRB1 *1101) | IC50 (HLA DRB1 *0404) | IC50 (HLA DRB5 *0101) | IC50 (purified HLA DRB1 *0405)
3 | AAANFVAAWTLHAAA [SEQ ID NO: 51] |  |  |  |  |  |  |  |  |  |  | 4.5 nM | 13 nM | 7.6 nM | 147 nM | 10 nM | 253 nM | 11 nM |  |  | 
4 | AAAWFVAAFTLHAAA [SEQ ID NO: 9] | 3.1 nM | 38 nM |  |  |  | 115 nM | 30 nM | 139 nM | 69 nM | 5.3 nM |  |  |  |  |  |  |  |  |  | 
5 | AAAYFVAANTLHAAA [SEQ ID NO: 24] | 3.3 nM | 53 nM |  | 5.2 nM | 54 nM | 703 nM |  | 130 nM | 49 nM | 4.5 nM |  |  |  |  |  |  |  |  |  | 
6 | AAAYFVAAWTLHAAA [SEQ ID NO: 21] |  |  | 9.7 nM |  |  | 279 nM |  | 119 nM | 55 nM | 3.7 nM |  |  |  |  |  |  |  |  |  | 6.9 nM
